Assay results published in publication PMC10419174, “WR1065 conjugated to thiol-PEG polymers as novel anticancer prodrugs: broad spectrum efficacy, synergism, and drug resistance reversal” (Frontiers in Oncology, 2023).
“And” between values parts separate entries of the source, which are not always exact repeats. Equal values may be shown once. Read-outs that look alike come from different tables or passages of the source. Marks after values point to notes of the source that are not given here.

What was measured:
[1] = tested on: Strain-2 and Strain-3 NHMECs; format: cell-based; details: 48 h; for IC50: read-out: IC50
Text: (§1) Normal human mammary epithelial cell (NHMEC) strains used to assess potential cytotoxicity of 4SP65 and 1LP65 were established from reduction mammoplasty tissue from a healthy donor (M99005 or ‘Strain-1’) ([53]) or purchased from ATCC (Manassas, VA, USA; batch#70043304 or ‘Strain-2’) or Cell Applications (San Diego, CA, USA; lot#1669 or ‘Strain-3’). Human cancer cell lines including HCC38, MDA-MB-231, A549, National Cancer Institute (NCI)-H460, NCI-H1437, NCI-H1975, DU145, LNCaP, PC3, PANC1, SKOV3, and HL60, which were free of Mycoplasma, were purchased from ATCC. HMESO1, PPMMill, and TOV21G cells, obtained from Dr. Brian Cunniff, were verified to be Mycoplasma negative using the LookOut® Mycoplasma PCR Detection Kit (Sigma-Aldrich) and to match previously annotated DNA fingerprints by the Vermont Integrative Genomics Resource DNA Analysis Facility.
(§2) To assess the effects of 4SP65 or 1LP65 on the growth of normal epithelium, experiments were performed using NHMEC strains from differing donors ([53]). Strain-1 NHMECs were plated at 5,000 cells/well in 24-well plates and allowed to reach 50% confluence before treatment with 0-150 µM 4SP65 for 48 h. Cell viability was determined using a hemocytometer and trypan blue exclusion assay. Two other NHMEC strains, exposed to 0-150 µM 4SP65 or 0-500 µM 1LP65 for 48 h, were handled in the same fashion except that viability of cells in 96-well plates was determined using CyQUANT dye. Due to the short life span of these NHMECs, standard curves were not generated and fluorescence readings were used as a surrogate marker of cell number ([54]).

[2] = tested on: Prostate LNCaP cells; assay: cells
Procedure: (§3) The percentage of growth inhibition was calculated as follows: […]

[3] = tested on: A549 NSCLC cells; assay: cells
Procedure: as §3

[4] = tested on: Pancreas PANC-1 cells; assay: cells
Procedure: as §3

[5] = tested on: Malignant pleural mesothelioma PPMMill cells; assay: cells; details: for Fold increase in efficacy: drug alone ÷ drug in 4SP65-DDP combination
Procedure: as §3

[6] = tested on: Prostate DU145 cells; assay: cells
Procedure: as §3

[7] = tested on: NCI-H1437 NSCLC cells
Procedure: as §3

[8] = tested on: Mammary gland HCC38 cells; assay: CyQUANT-NF proliferation assay, 48-h drug treatment; format: cell-based; details: for Relative cell inhibition: 99% confluent cells, 48 h
[9] = tested on: Promyelocytic HL-60 leukemia cells; format: cell-based
Procedure: as §3

[10] = Prodrug stability in culture medium with alamarBlue, cell free, 72 h; format: in vitro ADME; details: standard growth medium, 37°C
Procedure: To determine drug stability in tissue culture medium for short-term treatments, 4SP65 was added to medium containing alamarBlue reagent in 96-well plates and incubated in the absence of cells at 37°C for 72 h. After this incubation period, wells with medium containing alamarBlue alone or both alamarBlue and 4SP65 were assessed for fluorescence readings using a Tecan Infinite 200 PRO plate reader (San Jose, CA, USA).

[11] = tested on: Strain-1 NHMECs (M99005); assay: NHMEC growth, trypan blue exclusion, 48-h treatment; format: cell-based, human
Text: as §1, §2

[12] = 48-h treatment, amifostine ND = not definable up to 500 µM
[13] = drug alone, 48 h, 4SP65/cisplatin study
[14] = drug alone, 48 h, 4SP65/gefitinib study
[15] = drug alone, 48 h, 4SP65/gefitinib study, ND = not definable, highest concentration in parentheses
[16] = drug alone, 48 h, 4SP65/cisplatin study, ND = not definable, highest concentration in parentheses

4-star-PEG-S-S-WR1065 [4SP65]
IC50 ([1]; Strain-2 NHMECs): > 150 µM | growth enhancement ([1]; Strain-2 and Strain-3 cells, 3 µM): 162% ± 7% | growth relative to control cells ([1]; Strain-2 and Strain-3 cells, 9 µM): 78% ± 12% | growth relative to control cells ([1]; Strain-2 and Strain-3 cells, 30 µM): 52% ± 8% | growth relative to control cells ([1]; Strain-2 and Strain-3 cells, 90 µM): 21% ± 4% | growth relative to control cells ([1]; Strain-2 and Strain-3 cells, 150 µM): 8.7% ± 2% | IC50 ([1]; Strain-3 NHMECs): 76 ± 14 µM | CC50 [2]: 7.3 ± 1.8 µM | GI50 [2, 12]: 2.5 ± 1 µM | IC50 [2, 12]: 3.1 ± 1.5 µM | LC99 [2, 12]: 10.1 ± 1.0 µM | TGI [2, 12]: 4.7 ± 1.5 µM | Dose reduction value 1LP65 ÷ 4SP65 ([2]; at GI50): 11 fold | Dose reduction value AMF ÷ 4SP65 ([2]; at GI50): 60 fold | Dose reduction value 1LP65 ÷ 4SP65 ([2]; at IC50): 14 fold | Dose reduction value AMF ÷ 4SP65 ([2]; at IC50): 122 fold | Dose reduction value 1LP65 ÷ 4SP65 ([2]; at LC50): 12 fold | Dose reduction value 1LP65 ÷ 4SP65 ([2]; at LC99): 11 fold | Dose reduction value 1LP65 ÷ 4SP65 ([2]; at TGI): 11 fold | gains of cytostatic and cytolytic activities, range ([3]; 4SP65-cisplatin combined): 1.9- to 2.4 fold | GI50 [3, 12]: 5.3 ± 1.1 µM | IC50 [3, 12]: 6.8 ± 1.3 µM | LC99 [3, 12]: 14.9 ± 3.8 µM | TGI [3, 12]: 8.5 ± 1.5 µM and 8.5 µM | LC99, drug in combination (CMB) ([3]; amount of each drug in combination, ratio 50% 4SP65:50% DDP, 48 h): 8 µM | Dose reduction value 1LP65 ÷ 4SP65 ([3]; at GI50): 9.9 fold | Dose reduction value AMF ÷ 4SP65 ([3]; at GI50): 43 fold | Dose reduction value 1LP65 ÷ 4SP65 ([3]; at IC50): 9.8 fold | Dose reduction value AMF ÷ 4SP65 ([3]; at IC50): 37 fold | Dose reduction value 1LP65 ÷ 4SP65 ([3]; at LC50): 13 fold | Dose reduction value 1LP65 ÷ 4SP65 ([3]; at LC99): 13 fold | Dose reduction value 1LP65 ÷ 4SP65 ([3]; at TGI): 15 fold | Fold increase in efficacy ([3]; drug alone ÷ drug in 4SP65-DDP combination, at GI50): 2.4* fold | Fold increase in efficacy ([3]; drug alone ÷ drug in 4SP65-DDP combination, at IC50): 2.2* fold | Fold increase in efficacy ([3]; drug alone ÷ drug in 4SP65-DDP combination, at LC50): 1.9* fold | Fold increase in efficacy ([3]; drug alone ÷ drug in 4SP65-DDP combination, at LC99): 1.9* fold | Fold increase in efficacy ([3]; drug alone ÷ drug in 4SP65-DDP combination, at TGI): 1.9* fold | Fold increase in efficacy ([3]; drug alone ÷ drug in 4SP65-GEF combination, at GI50): 1.5** fold | Fold increase in efficacy ([3]; drug alone ÷ drug in 4SP65-GEF combination, at IC50): 1.4** fold | Fold increase in efficacy ([3]; drug alone ÷ drug in 4SP65-GEF combination, at LC50, GoE = gain of effect): 1.1 (NS) fold | Fold increase in efficacy ([3]; drug alone ÷ drug in 4SP65-GEF combination, at LC99, GoE = gain of effect): 1.0 (NS) fold | Fold increase in efficacy ([3]; drug alone ÷ drug in 4SP65-GEF combination, at TGI, GoE = gain of effect): 1.5** fold | GI50 [3, 13]: 5.4 ± 2.5 µM | IC50 [3, 13]: 6.8 ± 1.3 µM | LC99 [3, 13]: 14.9 ± 3.8 µM | TGI [3, 13]: 8.3 ± 1.5 µM | GI50 [3, 14]: 6 ± 0.6 µM | IC50 [3, 14]: 7.4 ± 0.7 µM | LC99 [3, 15]: 12.3 ± 3.8 µM | TGI [3, 15]: 11.3 ± 1.5 µM | CC50 [4]: 5 ± 0.3 µM | GI50 [4, 12]: 2.8 ± 0.6 µM | IC50 [4, 12]: 3.7 ± 0.6 µM | LC99 [4, 12]: 7.0 ± 0.5 µM | TGI [4, 12]: 4.0 ± 0.4 µM | Dose reduction value AMF ÷ 4SP65 ([4]; at GI50): 39 fold | GI50 [5, 12]: 6 ± 1.7 µM | IC50 [5, 12]: 7.4 ± 2 µM | LC99 [5, 12]: 14.8 ± 2.9 µM | TGI [5, 12]: 10.6 ± 3.0 µM | Fold increase in efficacy ([5]; at GI50): 1.3 (NS) fold | Fold increase in efficacy ([5]; at IC50): 1.3 (NS) fold | Fold increase in efficacy ([5]; at LC50, GoE = gain of effect): 1.3 (NS) fold | Fold increase in efficacy ([5]; at LC99, GoE = gain of effect): 1.3 (NS) fold | Fold increase in efficacy ([5]; at TGI, GoE = gain of effect): 1.3 (NS) fold | GI50 [5, 13]: 8.4 ± 1.5 µM | IC50 [5, 13]: 10 ± 1.9 µM | LC99 [5, 16]: 17.6 ± 3.5 µM | TGI [5, 16]: 14.1 ± 3.3 µM | CC50 [6]: 11.1 ± 0.1 µM | GI50 [6, 12]: 7.5 ± 1.2 µM | IC50 [6, 12]: 8.5 ± 1 µM | LC99 [6, 12]: 12.0 ± 0.1 µM | TGI [6, 12]: 9.5 ± 0.7 µM and 9.5 µM | Dose reduction value 1LP65 ÷ 4SP65 ([6]; at GI50): 3.5 fold | Dose reduction value AMF ÷ 4SP65 ([6]; at GI50): 17 fold | Dose reduction value 1LP65 ÷ 4SP65 ([6]; at IC50): 3.5 fold | Dose reduction value AMF ÷ 4SP65 ([6]; at IC50): 38 fold | Dose reduction value 1LP65 ÷ 4SP65 ([6]; at LC50): 6.4 fold | Dose reduction value 1LP65 ÷ 4SP65 ([6]; at LC99): 7.0 fold | Dose reduction value 1LP65 ÷ 4SP65 ([6]; at TGI): 5.6 fold | CC50 [7]: 19.6 ± 0.7 µM | GI50 [7, 12]: 10.6 ± 2 µM | IC50 [7, 12]: 12.5 ± 2.6 µM | LC99 [7, 12]: 21.1 ± 0.2 µM | TGI [7, 12]: 16.3 ± 1.9 µM | Dose reduction value 1LP65 ÷ 4SP65 ([7]; at GI50): 6.5 fold | Dose reduction value 1LP65 ÷ 4SP65 ([7]; at IC50): 6.0 fold | Dose reduction value 1LP65 ÷ 4SP65 ([7]; at LC50): 8.0 fold | Dose reduction value 1LP65 ÷ 4SP65 ([7]; at LC99): 11 fold | Dose reduction value 1LP65 ÷ 4SP65 ([7]; at TGI): 6.3 fold | CC50 [8]: 6.8 ± 0.9 µM | GI50 [8, 12]: 1.3 ± 0.4 µM | IC50 [8, 12]: 4.1 ± 0.2 µM | LC99 [8, 12]: 11.9 ± 1.6 µM | TGI [8, 12]: 3.7 ± 0.3 µM | Relative cell inhibition ([8]; 10 µM 4SP65 alone): 3.4 ± 10.9% | Relative cell inhibition ([8]; 10 µM 4SP65 with 10 µM insulin): 42 ± 6.5% | selectivity index ([8]; IC50 in NHMECs ÷ IC50 in HCC38, average): > 31 | Dose reduction value 1LP65 ÷ 4SP65 ([8]; at GI50): 28 fold | Dose reduction value AMF ÷ 4SP65 ([8]; at GI50): 60 fold | Dose reduction value 1LP65 ÷ 4SP65 ([8]; at IC50): 12 fold | Dose reduction value AMF ÷ 4SP65 ([8]; at IC50): 67 fold | Dose reduction value 1LP65 ÷ 4SP65 ([8]; at LC50): 8.8 fold | Dose reduction value 1LP65 ÷ 4SP65 ([8]; at LC99): 7.1 fold | Dose reduction value 1LP65 ÷ 4SP65 ([8]; at TGI): 13 fold | Dose reduction value AMF ÷ 4SP65 ([8]; at TGI): 69 fold | fold increase in drug efficacy with insulin ([8]; growth-arrested cells): 12.4 fold | CC50 [9]: 7.5 ± 2.1 µM | GI50 ([9]; 48-h treatment): 1.9 ± 0.6 µM | IC50 ([9]; 48-h treatment): 4.4 ± 0.9 µM | LC99 ([9]; 48-h treatment): 10.2 ± 3.4 µM | TGI ([9]; 48-h treatment): 4.7 ± 0.7 µM and 4.7 µM | change in fluorescence of alamarBlue reagent versus control wells [10]: no significant change | IC50 ([11]; Strain-1 NHMECs): > 150 µM | growth enhancement compared to sham-exposed control cells ([11]; Strain-1 cells, 5 µM): 336% | growth enhancement compared to sham-exposed control cells ([11]; Strain-1 cells, 15 µM): 286% | growth as % of the control cell growth ([11]; Strain-1 cells, 50 µM): 68% | growth pattern ([11]; Strain-1 cells, 150 µM): growth enhancement
